Values after ≈ are worked out from the molar mass of the structure shown. Like-named read-outs stand apart in the source and are kept apart here.
Columns and labels:
[1] = test system: S. aureus M133; test: MIC, agar plate dilution method; type: cell-based; conditions: Staphylococcus aureus, 37° C., 20 hours, read-out: Antimicrobial activity (MIC)
Experimental: (§1) Antimicrobial activities of the compounds of the present invention were determined by measuring minimum inhibitory concentration (MIC). Minimum inhibitory concentration was determined by the agar plate dilution method in the following manner.
(§2) Test strains were subjected to seed culture using Sensitivity test broth (STB, Nissui Pharmaceutical) except that the strains belonging to the genus Streptococcus, Branhamella and Haemophilus were cultured on blood agar plate. A 5 μl portion of cell suspension of the test strains having about 10^6 CFU/ml was inoculated into Sensitivity disk agar (SDA, Nissui Pharmaceutical) supplemented with 5% horse blood and incubated at 37° C. for 20 hours. Then, MIC was measured. For comparison, MDM and leucomycin A7 (LM-A7) was also tested.

[2] = test system: S. aureus M126; test: MIC, agar plate dilution method; type: cell-based; conditions: Staphylococcus aureus; S. aureus M126; 37° C., 20 hours; read-out: Antimicrobial activity (MIC)
Experimental: as §1, §2

[3] = test system: E. coli NIHJ JC-2; test: MIC, agar plate dilution method; type: cell-based; conditions: Escherichia coli, read-out: Antimicrobial activity (MIC)
Experimental: as §1, §2

[4] = test system: M. pneumoniae Numata; test: MIC, agar plate dilution method; type: cell-based; conditions: Mycoplasmoides pneumoniae, 20 h, read-out: Antimicrobial activity (MIC)
Experimental: as §1, §2

[5] = test system: S. aureus MS15009/pMS98; test: MIC, agar plate dilution method; type: cell-based; conditions: Staphylococcus aureus, MS15009/PMS98, 20 h, read-out: Antimicrobial activity (MIC)
Experimental: as §1, §2

[6] = test system: S. aureus MS15026; test: MIC, agar plate dilution method; type: cell-based; conditions: Staphylococcus aureus, 37° C., 20 hours, read-out: Antimicrobial activity (MIC)
Experimental: as §1, §2

[7] = test system: S. Pneumoniae Type 1; test: MIC, agar plate dilution method; type: cell-based; conditions: Streptococcus pneumoniae, read-out: Antimicrobial activity (MIC)
Experimental: as §1, §2

[8] = test system: S. Pyogenes Cook; test: MIC, agar plate dilution method; type: cell-based; conditions: Streptococcus pyogenes, 37° C., 20 hours, read-out: Antimicrobial activity (MIC)
Experimental: as §1, §2

[9] = test system: S. epidermidis ATCC14990; test: MIC, agar plate dilution method; type: cell-based; conditions: Staphylococcus epidermidis, 37° C., 20 hours, read-out: Antimicrobial activity (MIC)
Experimental: as §1, §2

[10] = test system: K. pneumoniae PC1602; test: MIC, agar plate dilution method; type: cell-based; conditions: Klebsiella pneumoniae, 37° C., 20 hours, read-out: Antimicrobial activity (MIC)
Experimental: as §1, §2

[11] = test system: M. pneumoniae Mac; test: MIC, agar plate dilution method; type: cell-based; conditions: Mycoplasmoides pneumoniae, 20 h, read-out: Antimicrobial activity (MIC)
Experimental: as §1, §2

[12] = test system: H. influenzae 9334; test: MIC, agar plate dilution method; type: cell-based; conditions: read-out: Antimicrobial activity (MIC)
Experimental: as §1, §2

[13] = test system: E. faecalis W-73; test: MIC, agar plate dilution method; type: cell-based; conditions: Enterococcus faecalis, read-out: Antimicrobial activity (MIC)
Experimental: as §1, §2

[14] = test system: S. pneumoniae IP692; test: MIC, agar plate dilution method; type: cell-based; conditions: Streptococcus pneumoniae, read-out: Antimicrobial activity (MIC)
Experimental: as §1, §2

[15] = test system: S. aureus MS15027; test: MIC, agar plate dilution method; type: cell-based; conditions: Staphylococcus aureus, 37° C., 20 hours, read-out: Antimicrobial activity (MIC)
Experimental: as §1, §2

[16] = test system: M. luteus ATCC9341; test: MIC, agar plate dilution method; type: cell-based; conditions: Micrococcus luteus, read-out: Antimicrobial activity (MIC)
Experimental: as §1, §2

[17] = test system: M. pneumoniae FH-P24; test: MIC, agar plate dilution method; type: cell-based; conditions: Mycoplasmoides pneumoniae, FHP24, 20 h, read-out: Antimicrobial activity (MIC)
Experimental: as §1, §2

[18] = test system: M. pneumoniae FH; test: MIC, agar plate dilution method; type: cell-based; conditions: Mycoplasmoides pneumoniae, 20 h, read-out: Antimicrobial activity (MIC)
Experimental: as §1, §2

[19] = test system: B. catarrhalis W-0500; test: MIC, agar plate dilution method; type: cell-based; conditions: Moraxella catarrhalis, W0500, 37° C., 20 hours, read-out: Antimicrobial activity (MIC)
Experimental: as §1, §2

[20] = test system: S. aureus 209P JC-1; test: MIC, agar plate dilution method; type: cell-based; conditions: Staphylococcus aureus; S. aureus 209P JC-1; 37° C., 20 hours; read-out: Antimicrobial activity (MIC)
Experimental: as §1, §2

[21] = test system: S. aureus MS15009/pMS99; test: MIC, agar plate dilution method; type: cell-based; conditions: Staphylococcus aureus, MS15009/PMS99, 20 h, read-out: Antimicrobial activity (MIC)
Experimental: as §1, §2

[22] = test system: B. catarrhalis W-0506; test: MIC, agar plate dilution method; type: cell-based; conditions: Moraxella catarrhalis, W0506, 37° C., 20 hours, read-out: Antimicrobial activity (MIC)
Experimental: as §1, §2

[23] = metabolism in plasma; type: in vitro ADME, rat; conditions: no free hydroxyl group in the neutral sugar moiety formed
Experimental: Each test compound and 50 μl of a methanol solution (10,000 γ) were added to 950 μl of thawed rat plasma and the resulting mixture was incubated at 37° C. for 24 hours. After completion of the incubation, a 20 μl portion of the mixture was added to 980 μl of 0.05M phosphate buffer (pH 7.6). A 20 μl portion of the sample solution was used to measure antimicrobial activity against M. luteus. Separately, the calibration curve was prepared by using a methanol solution containing each test compound. The starting activity of each compound in the plasma was referred to as 100%.

[24] = test system: M. luteus
Experimental: Each test compound and 50 μl of a methanol solution (10,000 γ) were added to 950 μl of thawed rat plasma and the resulting mixture was incubated at 37° C. for 24 hours. After completion of the incubation, a 20 μl portion of the mixture was added to 980 μl of 0.05M phosphate buffer (pH 7.6). A 20 μl portion of the sample solution was used to measure antimicrobial activity against M. luteus.

[25] = test system: Gram-positive bacteria and Mycoplasma; test: antimicrobial activity in vitro (summary in words); type: cell-based; conditions: from Table 1
Experimental: as §1, §2

[26] = test system: H. influenzae Type b; test: MIC, agar plate dilution method; type: cell-based; conditions: Haemophilus influenzae; H. influenzae Type b; 37° C., 20 hours; read-out: Antimicrobial activity (MIC)
Experimental: as §1, §2

[27] = test system: test strains; test: antimicrobial activity in vitro, comparison in words; type: cell-based
Experimental: as §1, §2

[28] = concentration in serum after oral administration to mice, bioassay; type: in vivo, mice (Jcl:ICR)
Experimental: The compound (3) was mixed with a 0.2% solution of carboxymethylcellulose to give a concentration of 4 mg/ml and a 1 ml portion of the resulting emulsion was orally administered to 4-week-old male Jcl:ICR mice. Blood was collected from armpit of the mice 30, 60, 120, 240 and 360 minutes after the administration of the test compound (n=2). The collected blood was allowed to stand at room temperature for about 2 hours and centrifuged for 20 minutes with a centrifuge (KUBOTA KS-5000P) to obtain serum. To the serum was added an equivalent volume of 50% CH3 CN-50 mM phosphate (1:1 by volume) buffer (pH 7.0). The resulting mixture served as a serum sample. The concentration of the test compound in the serum sample was measured by the following bioassay method.
One hundred […] of the serum sample was poured into a hole made on a test plate containing 40 ml of MRAPJ medium (6 g/l peptone, 3 g/l yeast extract, 1.5 g/l meat extract, 1 g/l glucose and 15 g/l agar, pH 6.5) supplemented with a solution of M. Iuteus ATCC9341 (1%) and incubated at 32° C. for 18 hours and MIC was measured based on the calibration curve. MOM, MDM and RKM were also tested for comparison. […] Thus a long-pending problem of "low concentration in serum" of 16-membered macrolide antibiotics has been solved. […] Thus this compound is considered as a macrolide derivative showing new pharmacokinetics.
Further, a pharmacokinetics test on the compound (12) of the present invention is carried out in the same manner as described above. Namely, 200 mg/kg of the compound (12) is orally administered to mice and the concentration of this compound in the serum is determined by a bioassay method with the use of M. luteus as a test strain. […] The disadvantage of 16-membered ring macrolide antibiotics, which has been pointed out for a long time, has been thus overcome.

[29] = test system: Gram-positive bacteria; test: antimicrobial activity in vitro (summary in words); type: cell-based; conditions: from Tables 2 and 3
Experimental: as §1, §2

[30] = S. pneumoniae IP692, 37° C., 20 hours
[31] = M. luteus ATCC9341, 37° C., 20 hours
[32] = NIHJJC2, E. coli NIHJ JC-2, 37° C., 20 hours
[33] = S. Pneumoniae Type 1, 37° C., 20 hours
[34] = Haemophilus influenzae, H. influenzae 9334, 37° C., 20 hours
[35] = W73, E. faecalis W-73, 37° C., 20 hours

Structure (SMILES) | MIC [1] | MIC [2] | MIC [4] | MIC [5] | MIC [6] | MIC [8] | MIC [9] | MIC [10] | MIC [11] | MIC [14, 30] | MIC [15] | MIC [16, 31] | MIC [17] | MIC [18] | MIC [19] | MIC [20] | MIC [21] | MIC [22] | extent of metabolism [23] | degree of loss of the antimicrobial activity in the plasma compared with MOM [24] | other results
CCCCO[C@H]1[C@H](C)O[C@@H](O[C@H]2[C@H](N(C)C)[C@@H](O)[C@H](O[C@H]3[C@@H](CC=O)C[C@@H](C)[C@@H](O)/C=C/C=C/C[C@@H](C)OC(=O)C[C@@H](OC(=O)CC)[C@@H]3OC)O[C@@H]2C)C[C@@]1(C)OC [(2)] | 0.78 µg/mL (≈ 0.942 µM) | > 100 µg/mL | 0.05 µg/mL (≈ 0.0604 µM) | 0.39 µg/mL (≈ 0.471 µM) | > 100 µg/mL | 0.2 µg/mL (≈ 0.242 µM) | 1.56 µg/mL (≈ 1.88 µM) | > 100 µg/mL | 0.1 µg/mL (≈ 0.121 µM) | 0.05 µg/mL (≈ 0.0604 µM) | 0.78 µg/mL (≈ 0.942 µM) | 0.05 µg/mL (≈ 0.0604 µM) | 0.1 µg/mL (≈ 0.121 µM) | 1.56 µg/mL (≈ 1.88 µM) | 1.56 µg/mL (≈ 1.88 µM) | 0.39 µg/mL (≈ 0.471 µM) | > 100 µg/mL | 1.56 µg/mL (≈ 1.88 µM) | hardly metabolized | lower than that of MOM | MIC ([3]; NIHJJC2, 20 h): > 100 µg/mL; MIC ([7]; 20 h): 0.2 µg/mL (≈ 0.242 µM); MIC ([12]; Haemophilus influenzae, 9334, 20 h): 6.25 µg/mL (≈ 7.55 µM); MIC ([13]; W73, 20 h): 3.13 µg/mL (≈ 3.78 µM); duration of antimicrobial activity in rat plasma [24]: extremely long-acting in rat plasma; antimicrobial activities compared with MDM [25]: comparable to, or even exceeding, that of MDM; antimicrobial activities on Gram-positive bacteria and Mycoplasma [25]: strong antimicrobial activities
CCCCCCO[C@H]1[C@H](C)O[C@@H](O[C@H]2[C@H](N(C)C)[C@@H](O)[C@H](O[C@H]3[C@@H](CC=O)C[C@@H](C)[C@@H](O)/C=C/C=C/C[C@@H](C)OC(=O)C[C@@H](OC(=O)CC)[C@@H]3OC)O[C@@H]2C)C[C@@]1(C)OC [(5)] | 1.56 µg/mL (≈ 1.82 µM) | > 100 µg/mL | 0.05 µg/mL (≈ 0.0584 µM) | 0.78 µg/mL (≈ 0.911 µM) | > 100 µg/mL | 0.2 µg/mL (≈ 0.234 µM) | 1.56 µg/mL (≈ 1.82 µM) | > 100 µg/mL | 0.2 µg/mL (≈ 0.234 µM) | – | 1.56 µg/mL (≈ 1.82 µM) | – | 0.2 µg/mL (≈ 0.234 µM) | 1.56 µg/mL (≈ 1.82 µM) | 1.56 µg/mL (≈ 1.82 µM) | 0.39 µg/mL (≈ 0.456 µM) | > 100 µg/mL | 1.56 µg/mL (≈ 1.82 µM) | hardly metabolized | lower than that of MOM | MIC [3, 32]: > 100 µg/mL; MIC [7, 33]: 0.2 µg/mL (≈ 0.234 µM); MIC [12, 34]: 6.25 µg/mL (≈ 7.3 µM); MIC [13, 35]: 3.13 µg/mL (≈ 3.66 µM); MIC ([14]; IP692, 20 h): 0.2 µg/mL (≈ 0.234 µM); MIC ([16]; ATCC9341, 20 h): 0.1 µg/mL (≈ 0.117 µM); duration of antimicrobial activity in rat plasma [24]: extremely long-acting in rat plasma; antimicrobial activities on Gram-positive bacteria and Mycoplasma [25]: strong antimicrobial activities
CO[C@@H]1[C@@H](O[C@@H]2O[C@H](C)[C@@H](O[C@H]3C[C@@](C)(OC)[C@@H](OCCC(C)C)[C@H](C)O3)[C@H](N(C)C)[C@H]2O)[C@@H](CC=O)C[C@@H](C)[C@@H](O)/C=C/C=C/C[C@@H](C)OC(=O)C[C@H]1O [(12)] | 0.39 µg/mL (≈ 0.496 µM) | > 100 µg/mL | – | 0.2 µg/mL (≈ 0.254 µM) | > 100 µg/mL | 0.05 µg/mL (≈ 0.0636 µM) | 0.39 µg/mL (≈ 0.496 µM) | > 100 µg/mL | – | 0.1 µg/mL (≈ 0.127 µM) | 0.39 µg/mL (≈ 0.496 µM) | 0.05 µg/mL (≈ 0.0636 µM) | – | – | 0.39 µg/mL (≈ 0.496 µM) | 0.1 µg/mL (≈ 0.127 µM) | > 100 µg/mL | 0.39 µg/mL (≈ 0.496 µM) | – | – | MIC [3, 32]: > 100 µg/mL; MIC [7, 33]: 0.1 µg/mL (≈ 0.127 µM); MIC [26]: 6.25 µg/mL (≈ 7.95 µM); MIC [12, 34]: 1.56 µg/mL (≈ 1.98 µM); MIC [13, 35]: 0.39 µg/mL (≈ 0.496 µM); antimicrobial activity in vitro compared with MOM ([27]; data are not shown): clearly much superior to MOM; antimicrobial activity compared with LM-A7 ([27]; except on Haemophilus influenzae, Tables 2 and 3): comparable or superior; Cmax ([28]; mouse, serum, 200 mg/kg, M. luteus bioassay, read-out: maximum concentration in the serum): 11500 ng/mL; maximum concentration in the serum, comparison in words ([28]; versus clarythromycin (CAM) or other 16-membered macrolides): comparable to that of CAM; antimicrobial activity on Gram-positive bacteria [29]: strong antimicrobial activity

Source: patent publication US5407918A, “16-membered macrolide derivatives and process for producing the same” (Meiji Seika Kaisha, Ltd., priority 1992, dated 1995)
